What was measured:
[1] = tested on: A549 xenografts in zebrafish embryos; assay: Zebrafish A549 tumor xenograft efficacy; format: in vivo; conditions: 0.5 μM, 48 to 72 hpf
Description: The anticancer activity of the complex 1 was tested using a qualitative high throughput zebrafish tumor xenograft model (IACUC # I13009).[74] First, zebrafish embryos were divided into 7 groups at an average of 65 embryos per group. Each group was treated with vehicle (DMSO) or complex 1 at variable concentrations to identify the maximum tolerable dose (MTD) (Fig. S29 ^†). […] Therefore, efficacy studies, using zebrafish bearing human tumor xenografts were carried out with complex 1 being administered at the 0.5 μM concentration level.[75]–[77] Briefly, live human lung cancer cells (A549) were labeled with CM-DiI (red) and only live cells were transplanted via injection into the perivitelline space of 30 zebrafish embryos 24 hours post fertilization (hpf).[74],[78],[79] Tumor inoculated zebrafish embryos were allowed to grow for one day till 48 hpf. This allows for establishment of the cancer cells in the host zebrafish embryos. At 48 hpf, the xenograft bearing zebrafish embryos were split into 2 groups (15 embryos per group) and treated with vehicle (DMSO) or complex 1 at 0.5 μM for one additional day (72 hpf), and cancer cell death was observed using acridine orange staining (green). Live zebrafish-A549 tumor xenografts treated with DMSO display features consistent with the presence of tumor cells (red, white arrows in Fig. 10A). […]

[2] = tested on: DNA duplex (5'CCGCAGCCA3'/5'TGGCTGCGG3'); assay: Thermal denaturation of a DNA duplex; format: binding; conditions: 1 molar equivalent, 5 μM complex and duplex
A2780 ovarian = assay: Cell proliferation (MTT assay) in A2780 ovarian cells; format: cell-based, human; conditions: wt-p53, platinum sensitive; Table 3
Description: (§1) Further anti-proliferation studies were carried out with complex 1 and its naphthoquinone component 4[H][Cl] using the following cell lines: A2780 ovarian (a wt-p53 cell line sensitive to platinum treatment), 2780CP ovarian (isogenic to A2780 but expressing multi-drug resistance (MDR)), and PC-3 prostate (p53 null) (Table 3).
(§2) Biological preparations and assays
(§3) Experimental compound preparation. Stock solutions of complexes 1–3, 4[H][Cl], auranofin (Tocris Bioscience 4600), and doxorubicin (Tocris Bioscience 2252) were dissolved in DMSO (2.5–10 mM, depending on the compound and its solubility), aliquoted, and stored at -80 °C prior to use.
(§4) Biological Materials and Cell Lines. Cell lines were obtained from the ATCC (A549 and PC-3) and Prof.
(§5) Zahid Siddik at M.D. Anderson Cancer Center (A2780 and A2780CP). Cell culture plastic ware (i.e. T-75 flasks, treated 6-well plates, treated 96-well plates, and cell scrapers) were obtained from Fisher Scientific. […]
(§6) were made. […] The medium was then removed, the resulting formazan was dissolved in […] DMSO and the respective absorbances were measured at 560–650 nm using a microplate reader (Molecular Devices, Sunnyvale, CA). Absorbance values were corrected for background and then normalized to wells containing untreated cells to allow for plate-to-plate comparisons. […]

A549 cells [3] = assay: Apoptosis by annexin-V/PI flow cytometry; format: cell-based, human; conditions: A549, 1.25–20 μM, 24 h
A549 cells [4] = assay: Detection of intracellular ROS by flow cytometry (CM-H2DCFDA); format: cell-based, human; conditions: A549, 2.5 μM, 6 h incubation, CM-H2DCFDA
zebrafish embryos = assay: Zebrafish toxicity analysis (lethality, MTD); format: in vivo
[5] = Differential pulse voltammetry, quinone reduction potentials; format: physicochemical; conditions: DMSO, 0.1 M [N(nBu)4][PF6], 0.1 mM analyte, vs. SCE
Description: A series of electrochemical analyses, including cyclic voltammetry (CV) and differential pulse voltammetry (DPV), were carried out with [NnBu4][PF6] in anhydrous dimethyl sulfoxide (DMSO) in order to evaluate electronic properties of compounds 1–3 and 4[H][Cl]. […] These electrochemical features were attributed to the reduction of the quinone moiety to first produce the semiquinone radical (NQ^–) and then produce the quinone dianion (NQ^2–) forms of compounds 1–3 and 4[H][Cl].[70],[71] The quinone reduction potential in 4[H][Cl] occurs at –0.38 V, the lowest of all the molecules studied, indicative of a positively charged imidazolium ring. The quinone couple at –0.42 V observed for compound 1 is ascribed to the presence of bis(NHC). The same wave in compound 3 appears at a more negative potential (–0.47 V), presumably due to greater trans effects excreted by quinone annulated NHC ligand than the metal-bound chloride. This analysis agrees well with the differences in the observed δ^13C (Au–Ccarbene) resonances for compounds 1 and 3. […]
mM) as referenced to SCE (internal standard Fc0/+, adjusted to 0.435 V vs. SCE).

A549 lung cancer cells = assay: ICP-MS detection of intracellular Au (cellular uptake)
PC-3 prostate = assay: Cell proliferation (MTT assay) in PC-3 prostate cells; format: cell-based, human; conditions: p53 null; Table 3
Description: as §1, §2, §3, §4, §5, §6

With `Cc1cc(C)c(-n2c3c(n(-c4c(C)cc(C)cc4C)[c]2=[Au-]=[c]2n(-c4c(C)cc(C)cc4C)c4c(n2-c2c(C)cc(C)cc2C)C(=O)c2ccccc2C4=O)C(=O)c2ccccc2C3=O)c(C)c1.[Cl][Ag-][Cl]` [Complex 1, [bis(1,3-dimesityl-4,5-naphthoquino-imidazol-2-ylidene)-gold(I)] [silver(I)dichloride]] as the compound, how does the “Tumor cell death in xenografts (acridine orange staining)” value [1] read?
Its value is “evidence of apoptosis for the majority of tumor cells”.

And the “Thermal stabilization of DNA” value [2]?
Its value is “no thermal stabilization”.

And the IC50 (A2780 ovarian)?
Its IC50 is 26 ± 7 nM.

What about the “Mechanism of cell death” value (A549 cells [3]) of the same compound?
Its value is “induces controlled cell death via an apoptotic mechanism”.

What about the “Increase in intracellular ROS (fluorescence cell population shift)” value (A549 cells [4]) of the same compound?
The value was 27 fold.

What about the Lethality (zebrafish embryos; zebrafish embryos, concentrations above 1 μM) of the same compound?
The Lethality was 100%.

What about the “LC50 (50% lethal concentration)” value (zebrafish embryos; zebrafish embryos/larvae) of the same compound?
Its value is 750 nM.

And the Mortality (zebrafish embryos; zebrafish larvae, 0.75 μM dose)?
Its Mortality is ~ 50%.

And the “E 1/2 a (V) DPV” value ([5]; first reduction, semiquinone radical (NQ˙–))?
Its value is “–0.42 V”.

What about the “E 1/2 b (V) DPV” value ([5]; second reduction, quinone dianion (NQ2–)) of the same compound?
The value was “–1.31 V”.

What about the “Intracellular Au levels (uptake), in words” value (A549 lung cancer cells) of the same compound?
The value was “identical”.

And the IC50 (PC-3 prostate)?
Its IC50 is 96 ± 17 nM.
